One series relates to T. mentagrophyte. The experiment in a line: microbe, parasite or virus in culture. The note with it: 18 h. As to the method:
(§1) Tools and materials were sterilized in an autoclave for 15 min at 121°C. Fungal culture was grown in agar media (Potato Dextrose agar) by picking some fungal colony using an inoculating loop, followed by incubation at 30°C for 24–48 h. Fungal culture was then suspended in liquid media (Potato Dextrose Broth). The suspended fungal culture was then incubated for 24–48 h at 30°C. The suspended fungal culture was then incubated at 30°C for 24 h and standardized equal to 0.5 Mc Farland (2 × 10^8 CFU ml^−1). The culture was diluted into the concentration of 5 × 10^5 CFU ml^−1.
(§2) Six tetrapeptides and six cyclotetrapeptides were dissolved in DMSO 2% with a concentration of 1 µg mL^−1. Each solution was dissolved gradually. Subsequently, 12 sample solutions, ciprofloxacin, nystatin, ketoconazole and DMSO 2% were incubated on a 96-well microplate at 37°C for 18 h. The result was interpreted using a spectrophotometer, with a wavelength of 600 nm. MIC was measured as the percentage of microbial inhibition and cell death.

A short description of series [1]: head-to-tail lactamisation of linear tetrapeptide (N-terminal Pro amine + C-terminal Ile acid), HATU (2 equiv), DIPEA (3 equiv). The note with it: the molecule shown is the open-chain precursor; 12-membered ring; CH2Cl2 (with ca. 0.2-0.5% DMF); 0.4 mM; 25.0 °C; 1.5 h.
The subject of a further series is B. cereus ATCC 11778. The experiment in a line: microbe, parasite or virus in culture. As to the method: (§3) Tools and materials were sterilized in an autoclave for 15 min at 121°C. Bacterial culture was grown in agar media (Mueller Hinton agar) by picking some bacterial colony using an inoculating loop, followed by incubation at 37°C for 24 h. Bacterial culture was then suspended in liquid media (Mueller Hinton Broth). The suspended bacterial culture was then incubated at 37°C for 24 h and standardized equal to 0.5 Mc Farland (2 × 10^8 CFU ml^−1). The culture was diluted into the concentration of 5 × 10^5 CFU ml^−1.
as §2

The test system of another series is S. aureus ATCC 6538. The experiment in a line: microbe, parasite or virus in culture. How it is done:
as §3, §2

The test system of another series is K. pneumonia ATCC 2357. Kind of series: microbe, parasite or virus in culture. The note with it: ATCC 2357, 18 h. As to the method: as §3, §2
Another series deals with E. coli ATCC 11229. The experiment in a line: microbe, parasite or virus in culture. The note with it: ATCC 11229, 18 h. As to the method: as §3, §2
A further series relates to C. albicans ATCC 10231. How it is done: as §1, §2
Setting [2] is: Mueller Hinton Broth, 5 × 10^5 CFU ml^−1, DMSO 2%, 96-well microplate, 37°C, 18 h, read at 600 nm, single experiment.
[3] abbreviates: Potato Dextrose Broth, 5 × 10^5 CFU ml^−1, DMSO 2%, 96-well microplate, 37°C, 18 h, read at 600 nm, single experiment.

From paper PMC8074941, “Synthesis of cyclotetrapeptide analogues of c-PLAI and evaluation of their antimicrobial properties” (Royal Society Open Science, 2021) come the findings set out here.

Converted amounts (≈) assume the structure as drawn. Read-outs that look alike come from different tables or passages of the source. Where a SMILES comes first, the peptide text is derived from it.

In the case of `CC(=O)N1CCN(c2ccc(OCC3COC(Cn4ccnc4)(c4ccc(Cl)cc4Cl)O3)cc2)CC1` (stereo not drawn) [Ketokonazole, reference compound], in the series on T. mentagrophyte (Trichophyton mentagrophytes, read-out: minimum inhibitory concentration (MIC) T. mentagrophyte), the MIC was 312 mg/L (≈ 588 µM).

In the case of `CC[C@H](C)[C@H](NC(=O)[C@@H](NC(=O)[C@H](CC(C)C)NC(=O)[C@@H]1CCCN1)C(C)C)C(=O)O` [H-Pro-Leu-Val-Ile-OH], in series [1], the ring closure, isolated yield is 52%.

With `CC[C@H](C)[C@@H]1NC(=O)[C@H](Cc2ccccc2)NC(=O)[C@H](CC(C)C)NC(=O)[C@@H]2CCCN2C1=O` [c-PLFI, cyclo-(pro-leu-phe-ile)] (cyclo(PLFI)), in the series with T. mentagrophyte, the “minimum inhibitory concentration (MIC) T. mentagrophyte” value turned out to be 250 mg/L (≈ 531 µM). For the same compound, in the series with B. cereus ATCC 11778 (ATCC 11778, 18 h), the “minimum inhibitory concentration (MIC) B. cereus ATCC 11778” value was 125 mg/L (≈ 266 µM). Also, in the series with S. aureus ATCC 6538 (ATCC 6538, 18 h), the “minimum inhibitory concentration (MIC) S. aureus ATCC 6538” value is 500 mg/L (≈ 1060 µM). Besides, the “minimum inhibitory concentration (MIC) K. pneumonia ATCC 2357” value in the series with K. pneumonia ATCC 2357 came to 250 mg/L (≈ 531 µM). In the series on E. coli ATCC 11229, the “minimum inhibitory concentration (MIC) E. coli ATCC 11229” value stood at 125 mg/L (≈ 266 µM). Besides, in the series on C. albicans ATCC 10231 (ATCC 10231, 18 h), the “minimum inhibitory concentration (MIC) C. albicans ATCC 10231” value worked out at 500 mg/L (≈ 1060 µM).

As to `CC[C@H](C)[C@H](NC(=O)[C@H](Cc1ccccc1)NC(=O)[C@H](CC(C)C)NC(=O)[C@@H]1CCCN1)C(=O)O` [PLFI] (H-PLFI-OH), in the series on B. cereus ATCC 11778 (ATCC 11778, 18 h), the “minimum inhibitory concentration (MIC) B. cereus ATCC 11778” value is 500 mg/L (≈ 1020 µM). The “minimum inhibitory concentration (MIC) S. aureus ATCC 6538” value with S. aureus ATCC 6538 (ATCC 6538, 18 h) is more than 1000 mg/L. Further, the “minimum inhibitory concentration (MIC) K. pneumonia ATCC 2357” value in the series with K. pneumonia ATCC 2357 was more than 1000 mg/L. In addition, in the series with E. coli ATCC 11229, the “minimum inhibitory concentration (MIC) E. coli ATCC 11229” value was more than 1000 mg/L. For the same compound, in the series with C. albicans ATCC 10231 (ATCC 10231, 18 h), the “minimum inhibitory concentration (MIC) C. albicans ATCC 10231” value is more than 1000 mg/L.

Consider `CC[C@H](C)[C@H](NC(=O)[C@H](C)NC(=O)[C@H](CCCCN)NC(=O)[C@@H]1CCCN1)C(=O)O` [PKAI] (H-PKAI-OH), for which the “minimum inhibitory concentration (MIC) T. mentagrophyte” value with T. mentagrophyte is 500 mg/L (≈ 1170 µM). Further, in the series on B. cereus ATCC 11778 (ATCC 11778, 18 h), the “minimum inhibitory concentration (MIC) B. cereus ATCC 11778” value was 500 mg/L (≈ 1170 µM). The “minimum inhibitory concentration (MIC) S. aureus ATCC 6538” value in the series on S. aureus ATCC 6538 (ATCC 6538, 18 h) came out at 500 mg/L (≈ 1170 µM). Further, the “minimum inhibitory concentration (MIC) K. pneumonia ATCC 2357” value in the series with K. pneumonia ATCC 2357 came to 500 mg/L (≈ 1170 µM). In the series with E. coli ATCC 11229, the “minimum inhibitory concentration (MIC) E. coli ATCC 11229” value turned out to be 250 mg/L (≈ 585 µM). In addition, in the series with C. albicans ATCC 10231 (ATCC 10231, 18 h), the “minimum inhibitory concentration (MIC) C. albicans ATCC 10231” value is 250 mg/L (≈ 585 µM).

With `CC[C@H](C)[C@H](NC(=O)[C@H](Cc1ccccc1)NC(=O)[C@H](CCCCN)NC(=O)[C@@H]1CCCN1)C(=O)O` [PKFI] (H-PKFI-OH), the “minimum inhibitory concentration (MIC) T. mentagrophyte” value with T. mentagrophyte is 500 mg/L (≈ 993 µM). In the series with B. cereus ATCC 11778 (ATCC 11778, 18 h), the “minimum inhibitory concentration (MIC) B. cereus ATCC 11778” value is 250 mg/L (≈ 496 µM). In the series with S. aureus ATCC 6538 (ATCC 6538, 18 h), the “minimum inhibitory concentration (MIC) S. aureus ATCC 6538” value came out at 250 mg/L (≈ 496 µM). Besides, in the series with K. pneumonia ATCC 2357, the “minimum inhibitory concentration (MIC) K. pneumonia ATCC 2357” value came to 500 mg/L (≈ 993 µM). The “minimum inhibitory concentration (MIC) E. coli ATCC 11229” value in the series on E. coli ATCC 11229 is 250 mg/L (≈ 496 µM). Moreover, in the series with C. albicans ATCC 10231 (ATCC 10231, 18 h), the “minimum inhibitory concentration (MIC) C. albicans ATCC 10231” value stood at 250 mg/L (≈ 496 µM).

Consider `CC[C@H](C)[C@@H]1NC(=O)[C@H](Cc2ccccc2)NC(=O)[C@H](CCCCN)NC(=O)[C@@H]2CCCN2C1=O` [c-PKFI, cyclo-(pro-lys-phe-ile)] (cyclo(PKFI)), for which, in the series on T. mentagrophyte, the “minimum inhibitory concentration (MIC) T. mentagrophyte” value came out at 125 mg/L (≈ 257 µM). The “minimum inhibitory concentration (MIC) B. cereus ATCC 11778” value in the series with B. cereus ATCC 11778 (setting [2]) was 62.5 mg/L (≈ 129 µM). The “minimum inhibitory concentration (MIC) S. aureus ATCC 6538” value in the series with S. aureus ATCC 6538 (setting [2]) worked out at 62.5 mg/L (≈ 129 µM). In addition, the “minimum inhibitory concentration (MIC) K. pneumonia ATCC 2357” value in the series on K. pneumonia ATCC 2357 is 250 mg/L (≈ 515 µM). Besides, the “minimum inhibitory concentration (MIC) E. coli ATCC 11229” value with E. coli ATCC 11229 stood at 31.25 mg/L (≈ 64.3 µM). The “minimum inhibitory concentration (MIC) C. albicans ATCC 10231” value in the series on C. albicans ATCC 10231 (setting [3]) turned out to be 62.50 mg/L (≈ 129 µM).

Take `C[C@@H]1[C@H](O)[C@@H](C)/C=C/C=C/CC/C=C/C=C/C=C/C=C/C(O[C@H]2O[C@H](C)[C@@H](O)[C@H](N)[C@@H]2O)CC2O[C@](O)(CC(O)C(O)CCC(O)CC(O)CC(O)CC(=O)O[C@H]1C)CC(O)C2C(=O)O` (stereo partly drawn) [Nystatin, reference compound]: the “minimum inhibitory concentration (MIC) C. albicans ATCC 10231” value with C. albicans ATCC 10231 (setting [3]) was found to be 4.88 mg/L (≈ 5.27 µM).

On to `CC[C@H](C)[C@@H]1NC(=O)[C@H](C)NC(=O)[C@H](CCCCN)NC(=O)[C@@H]2CCCN2C1=O` [c-PKAI, cyclo-(pro-lys-ala-ile)] (cyclo(PKAI)), for which the “minimum inhibitory concentration (MIC) T. mentagrophyte” value in the series on T. mentagrophyte was 125 mg/L (≈ 305 µM). In addition, the “minimum inhibitory concentration (MIC) B. cereus ATCC 11778” value in the series on B. cereus ATCC 11778 (ATCC 11778, 18 h) stood at 125 mg/L (≈ 305 µM). In the series on S. aureus ATCC 6538 (ATCC 6538, 18 h), the “minimum inhibitory concentration (MIC) S. aureus ATCC 6538” value came to 125 mg/L (≈ 305 µM). The “minimum inhibitory concentration (MIC) K. pneumonia ATCC 2357” value with K. pneumonia ATCC 2357 came out at 250 mg/L (≈ 610 µM). Also, the “minimum inhibitory concentration (MIC) E. coli ATCC 11229” value with E. coli ATCC 11229 was found to be 62.50 mg/L (≈ 153 µM). Also, the “minimum inhibitory concentration (MIC) C. albicans ATCC 10231” value in the series on C. albicans ATCC 10231 (ATCC 10231, 18 h) amounted to 125 mg/L (≈ 305 µM).

Take `CC[C@H](C)[C@H](NC(=O)[C@H](C)NC(=O)[C@H](CC(C)C)NC(=O)[C@@H]1CCCN1)C(=O)O` [PLAI] (H-PLAI-OH): in the series on S. aureus ATCC 6538 (ATCC 6538, 18 h), the “minimum inhibitory concentration (MIC) S. aureus ATCC 6538” value is more than 1000 mg/L. Moreover, the “minimum inhibitory concentration (MIC) K. pneumonia ATCC 2357” value in the series with K. pneumonia ATCC 2357 amounted to 250 mg/L (≈ 606 µM). The “minimum inhibitory concentration (MIC) E. coli ATCC 11229” value with E. coli ATCC 11229 was more than 1000 mg/L. In addition, the “minimum inhibitory concentration (MIC) C. albicans ATCC 10231” value in the series with C. albicans ATCC 10231 (ATCC 10231, 18 h) was more than 1000 mg/L.
